Read-outs that look alike come from different tables or passages of the source.
Key:
CLL cells = assay: In vitro stroma-induced CLL proliferation model (BrdU incorporation); assay type: cell-based, human; settings: BTK-mutated (C481S) CLL cells, FIG. 3C, untreated 31%
CML = settings: cited from earlier work

Row | SMILES | proliferation (CLL cells) | proliferation (in words) (CLL cells) | also measured
1 | CC[C@H](Nc1ncnc2[nH]cnc12)c1nc2cccc(F)c2c(=O)n1-c1ccccc1 [GS-1101] | 14% |  | 
2 | Cc1cccc(Nc2nc(N[C@@H]3CCCC[C@@H]3N)ncc2C(N)=O)c1 [PRT060318] |  | complete inhibition of proliferation | 
3 | CCS(=O)(=O)N1CCN(c2ccc(Nc3ncc(C(N)=O)c(NC4CC4)n3)cc2)CC1 [PRT062070] |  | complete inhibition of proliferation | 
4 | Cc1ccc(NC(=O)c2ccc(CN3CCN(C)CC3)cc2)cc1Nc1nccc(-c2cccnc2)n1 [imatinib] |  |  | patients who relapse (CML; advanced CML): 66%; patients who relapse (CML; chronic CML, within the first few years): 5%
5 | C[C@@H]1CCN(C(=O)CC#N)C[C@@H]1N(C)c1ncnc2[nH]ccc12 [tofacitinib] | 21% |  | 

Reference: patent publication US10954567B2, “Mutations associated with resistance to inhibitors of Bruton's Tyrosine Kinase (BTK)” (Pharmacyclics LLC, priority 2012, dated 2021)
